pIC50: −log10 of the molar value. Values after ≈ are worked out from the molar mass of the structure shown.
Test system: Escherichia coli
Test: Antimicrobial activity against Escherichia coli HS294
Type: functional
Settings: not given; call rule not given here

MIC [mg/L] | Structure (SMILES)
12.5 (≈ 25.6 µM) | C[S+]([O-])c1cc(C(N)=O)cc2nc(NCc3ccccc3Cl)n(C[C@H]3CCCCC[C@H]3O)c12 (some centres undefined)
0.2 (≈ 0.424 µM) | NC(=O)c1cc([N+](=O)[O-])c2c(c1)nc(NCc1ccccc1Cl)n2C[C@H]1CCCCC[C@H]1O
0.8 (≈ 1.91 µM) | NC(=O)c1ccc2c(n1)nc(NCc1ccccc1Cl)n2[C@@H]1CCc2ccccc21
0.4 (≈ 0.791 µM) | NC(=O)c1cc(Br)c2c(c1)nc(NCc1ccccc1Cl)n2C[C@H]1CCCCC[C@H]1O
1.6 (≈ 4.13 µM) | CC(C)(CO)Cn1c(NCc2ccccc2Cl)nc2nc(C(N)=O)ccc21
1.6 (≈ 3.17 µM) | CS(=O)(=O)c1cc(C(N)=O)cc2nc(NCc3ccccc3Cl)n(C[C@H]3CCCCC[C@H]3O)c12

Test system: not listed separately
Test: Inhibition of Escherichia coli HS294 ACCase
Settings: not given

IC50 | Structure (SMILES)
Not Active | COc1cc(Cc2cnc(N)nc2N)cc(OC)c1OC [TRIMETHOPRIM]

Same assay, conditions: read-out: IC50

pIC50 | Structure (SMILES)
6.59 | C[S+]([O-])c1cc(C(N)=O)cc2nc(NCc3ccccc3Cl)n(C[C@H]3CCCCC[C@H]3O)c12 (some centres undefined)
4.40 | NC(=O)c1ccc2c(n1)nc(NCc1ccccc1Cl)n2Cc1cccc(OC(F)(F)F)c1
6.10 | CC(C)CCNS(=O)(=O)c1cc(C(N)=O)cc2nc(NCc3ccccc3Cl)n(C[C@H]3CCCCC[C@H]3O)c12
5.89 | NC(=O)c1ccc2c(c1)nc(NCc1ccccc1Cl)n2[C@H]1CCCc2ccccc21
6.46 | CC(C)(C)OCCCn1c(NCc2ccccc2Cl)nc2nc(C(N)=O)ccc21
4.39 | C[C@H](Nc1nc2cc(C(N)=O)ccc2n1CC1CCCCC1)c1ccccc1
6.72 | NC(=O)c1ccc2c(n1)nc(NCc1ccccc1Cl)n2CCCO
3.86 | COc1ccccc1CNc1nc2cc(C(N)=O)ccc2n1CC1CCCCC1
8.00 | NC(=O)c1cc([N+](=O)[O-])c2c(c1)nc(NCc1ccccc1Cl)n2C[C@H]1CCCCC[C@H]1O
6.40 | NC(=O)c1ccc2c(c1)nc(NCc1ccccc1Cl)n2CC[C@H](O)CO
4.55 | Cc1ccccc1CNc1nc2cc(C(N)=O)ccc2n1CC1CCCCC1
7.70 | NC(=O)c1ccc2c(n1)nc(NCc1ccccc1Cl)n2[C@@H]1CCc2ccccc21
5.02 | NC(=O)c1ccc2c(c1)nc(NCc1ccccc1Cl)n2CCc1c[nH]c2ccccc12
5.70 | NC(=O)c1ccc2c(c1)nc(NCc1ccccc1Cl)n2CCCO
5.56 | NC(=O)c1ccc2c(n1)nc(NCc1ccccc1Cl)n2Cc1ccc2c(c1)OCCO2
4.80 | NC(=O)c1ccc2c(c1)nc(NCc1ccccc1)n2CC1CCCCC1
3.62 | NC(=O)c1ccc2c(c1)nc(NCc1c(Cl)cccc1Cl)n2CC1CCCCC1
7.00 | CC(C)S(=O)(=O)c1cc(C(N)=O)cc2nc(NCc3ccccc3Cl)n(C[C@H]3CCCCC[C@H]3O)c12
6.30 | NC(=O)c1ccc2c(c1)nc(NCc1ccccc1Cl)n2C[C@H]1CCCCC[C@H]1O
4.40 | NC(=O)c1ccc2c(c1)nc(NCc1cccc(Cl)c1)n2CC1CCCCC1
3.84 | NC(=O)c1ccc2c(c1)nc(NCc1ccccc1C(F)(F)F)n2CC1CCCCC1
3.84 | NC(=O)c1ccc2c(c1)nc(NCc1ccccc1Br)n2CC1CCCCC1
5.52 | NC(=O)c1ccc2c(n1)nc(NCc1ccccc1Cl)n2CC(O)COc1ccccc1 (centres undefined)
4.30 | Cn1c(NCc2ccccc2Cl)nc2cc(C(N)=O)cc(N)c21
6.89 | NC(=O)c1cc(Br)c2c(c1)nc(NCc1ccccc1Cl)n2C[C@H]1CCCCC[C@H]1O
6.15 | NC(=O)c1cc(S(N)(=O)=O)c2c(c1)nc(NCc1ccccc1Cl)n2C[C@H]1CCCCC[C@H]1O

pIC50 | Structure (SMILES)
6.15 | NC(=O)c1ccc2c(c1)nc(NCc1ccccc1Cl)n2[C@@H]1CCc2ccccc21
6.77 | NC(=O)c1ccc2c(n1)nc(NCc1ccccc1Cl)n2Cc1ccccc1
7.70 | CC(C)(CO)Cn1c(NCc2ccccc2Cl)nc2nc(C(N)=O)ccc21
4.20 | NC(=O)c1ccc2c(c1)nc(NCc1ccc(Cl)cc1)n2CC1CCCCC1
4.77 | NC(=O)c1ccc2c(c1)nc(NCc1ccccc1F)n2CC1CCCCC1
7.22 | CS(=O)(=O)c1cc(C(N)=O)cc2nc(NCc3ccccc3Cl)n(C[C@H]3CCCCC[C@H]3O)c12
3.77 | NC(=O)c1ccc2c(c1)nc(NCc1cccc3ccccc13)n2CC1CCCCC1
6.52 | NC(=O)c1ccc2c(n1)nc(NCc1ccccc1Cl)n2CC1COc2ccccc2O1 (centres undefined)
6.15 | CC(C)(CO)Cn1c(NCc2ccccc2Cl)nc2cc(C(N)=O)ccc21
6.89 | NC(=O)c1ccc2c(n1)nc(NCc1ccccc1Cl)n2C1CCCCC1
5.30 | NC(=O)c1ccc2c(c1)nc(NCc1ccccc1Cl)n2CC1CCCCC1
< 4.70 | CNC(=O)c1ccc2c(c1)nc(NCc1ccccc1Cl)n2CC1CCCCC1
7.05 | NC(=O)c1cc([N+](=O)[O-])c2c(c1)nc(NCc1ccccc1Cl)n2[C@H]1CCc2ccccc21
6.77 | CSc1cc(C(N)=O)cc2nc(NCc3ccccc3Cl)n(C[C@H]3CCCCC[C@H]3O)c12
5.46 | Cn1c(NCc2ccccc2Cl)nc2cc(C(N)=O)cc([N+](=O)[O-])c21
6.80 | NC(=O)c1ccc2c(n1)nc(NCc1ccccc1Cl)n2CC1CCCCC1
5.68 | NC(=O)c1cc(S(=O)(=O)NCc2ccc(Cl)cc2)c2c(c1)nc(NCc1ccccc1Cl)n2C[C@H]1CCCCC[C@H]1O
5.05 | NC(=O)c1ccc2c(c1)nc(NCc1ccccc1Cl)n2CCc1ccccc1
5.55 | COc1ccccc1Cn1c(NCc2ccccc2Cl)nc2nc(C(N)=O)ccc21
5.30 | NC(=O)c1cc(N)c2c(c1)nc(NCc1ccccc1Cl)n2C[C@H]1CCCCC[C@H]1O
5.68 | CC1CCCCC1n1c(NCc2ccccc2Cl)nc2cc(C(N)=O)ccc21 (centres undefined)
4.83 | NC(=O)c1ccc2c(c1)nc(NCc1ccccc1Cl)n2[C@H]1CCc2ccccc21
6.42 | CNS(=O)(=O)c1cc(C(N)=O)cc2nc(NCc3ccccc3Cl)n(C[C@H]3CCCCC[C@H]3O)c12
5.69 | C[C@@H](c1ccccc1)n1c(NCc2ccccc2Cl)nc2nc(C(N)=O)ccc21
6.57 | C[C@H](O)Cn1c(NCc2ccccc2Cl)nc2nc(C(N)=O)ccc21
5.80 | NC(=O)c1cc(Cl)c2c(c1)nc(NCc1ccccc1Cl)n2CC1CCCCC1
